From US11957687B2 (REGENERON PHARMACEUTICALS, INC., priority 2019, dated 2024)
Values joined by “and” are separate entries in the source; they are usually repeats but may differ in a detail not shown here. Equal entries are not always repeated.

biological target: HSD17B13 (Homo sapiens (Human), UniProt Q7Z5P4); assay: HSD17B13 enzymatic inhibition assay (150 nM or 50 nM HSD17B13); type: biochemical; conditions: 50 nM HSD17B13; read-out: Inhibition of 50 nM of HSD17B13 IC50
Sequence (Q7Z5P4 other isoform, or with tags, fused parts or gaps): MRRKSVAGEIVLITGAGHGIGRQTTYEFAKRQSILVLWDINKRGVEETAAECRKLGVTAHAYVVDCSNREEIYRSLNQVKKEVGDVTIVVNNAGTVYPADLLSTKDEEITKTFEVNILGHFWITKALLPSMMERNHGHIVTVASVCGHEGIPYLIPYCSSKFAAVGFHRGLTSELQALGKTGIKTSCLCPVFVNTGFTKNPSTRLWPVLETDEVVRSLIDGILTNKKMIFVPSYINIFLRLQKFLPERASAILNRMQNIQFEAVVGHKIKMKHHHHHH

Structure (SMILES) | IC50
O=C(NC(c1ccccc1)C1CCCCC1)c1ccc(C(F)(F)F)[nH]c1=O (stereo not drawn) [Compound 58, N-(cyclohexyl(phenyl)methyl)-2-oxo-6-(trifluoromethyl)-1,2-dihydropyridine-3-carboxamide] | 2890 nM
O=C(NC1c2ccccc2-c2ccccc21)c1cnc(Cc2ccccc2)[nH]c1=O [Compound 59, 2-benzyl-N-(9H-fluoren-9-yl)-6-oxo-1,6-dihydropyrimidine-5-carboxamide] | > 10000 nM
O=C(Nc1cc(-c2ccccc2)cc(-c2ccccc2)c1)c1ccc(C(F)(F)F)[nH]c1=O [Compound 60, N-([1,1′:3′,1″-terphenyl]-5′-yl)-2-oxo-6-(trifluoromethyl)-1,2-dihydropyridine-3-carboxamide] | > 10000 nM
Cc1ccc(C(NC(=O)c2ccc(C(F)F)[nH]c2=O)c2ccc(C)cc2)cc1 [Compound 61, N-(di-p-tolylmethyl)-6-(difluoromethyl)-2-oxo-1,2-dihydropyridine-3-carboxamide] | 2250 nM
CC(=O)Nc1ccc(C(NC(=O)c2ccc(C(F)(F)F)[nH]c2=O)c2ccccc2)cc1 (stereo not drawn) [Compound 66, N-((4-acetamidophenyl)(phenyl)methyl)-2-oxo-6-(trifluoromethyl)-1,2-dihydropyridine-3-carboxamide] | 7220 nM
O=C(NC(c1ccc(Cl)cc1)c1ccccn1)c1ccc(C(F)(F)F)[nH]c1=O (stereo not drawn) [Compound 67, N-((4-chlorophenyl)(pyridin-2-yl)methyl)-2-oxo-6-(trifluoromethyl)-1,2-dihydropyridine-3-carboxamide] | 2270 nM
O=C(NC(c1ccncc1)c1ccc(Cl)cc1)c1ccc(C(F)(F)F)[nH]c1=O (stereo not drawn) [Compound 68, N-((4-chlorophenyl)(pyridin-4-yl)methyl)-2-oxo-6-(trifluoromethyl)-1,2-dihydropyridine-3-carboxamide] | 2530 nM
O=C(NC(c1ccc(Cl)cc1)c1cccnc1)c1ccc(C(F)(F)F)[nH]c1=O (stereo not drawn) [Compound 69, N-((4-chlorophenyl)(pyridin-3-yl)methyl)-2-oxo-6-(trifluoromethyl)-1,2-dihydropyridine-3-carboxamide] | 2590 nM
O=C(NC(c1ccc(Cl)cc1)c1cnccn1)c1ccc(C(F)(F)F)[nH]c1=O (stereo not drawn) [Compound 70, N-((4-chlorophenyl)(pyrazin-2-yl)methyl)-2-oxo-6-(trifluoromethyl)-1,2-dihydropyridine-3-carboxamide] | > 10000 nM
O=C(NC(c1ccc(Cl)cc1)c1ncccn1)c1ccc(C(F)(F)F)[nH]c1=O (stereo not drawn) [Compound 71, N-((4-chlorophenyl)(pyrimidin-2-yl)methyl)-2-oxo-6-(trifluoromethyl)-1,2-dihydropyridine-3-carboxamide] | 5850 nM
O=C(NC(c1ccccc1)c1cccc(Br)n1)c1ccc(C(F)(F)F)[nH]c1=O (stereo not drawn) [Compound 72, N-((6-bromopyridin-2-yl)(phenyl)methyl)-2-oxo-6-(trifluoromethyl)-1,2-dihydropyridine-3-carboxamide] | 7050 nM
O=C(NC(c1ccncc1)c1ccncc1)c1ccc(C(F)(F)F)[nH]c1=O [Compound 73, N-(di(pyridin-4-yl)methyl)-2-oxo-6-(trifluoromethyl)-1,2-dihydropyridine-3-carboxamide] | > 10000 nM
O=C(Nc1ccc(C(NC(=O)c2ccc(C(F)(F)F)[nH]c2=O)c2ccccc2)cc1)c1ccccc1 (stereo not drawn) [Compound 75, N-((4-benzamidophenyl)(phenyl)methyl)-2-oxo-6-(trifluoromethyl)-1,2-dihydropyridine-3-carboxamide] | 1870 nM
O=C(NC(c1ccccc1)c1ccc(C2CCOCC2)cc1)c1ccc(C(F)(F)F)[nH]c1=O (stereo not drawn) [Compound 76, N-(phenyl(4-(tetrahydro-2H-pyran-4-yl)phenyl)methyl)-2-oxo-6-(trifluoromethyl)-1,2-dihydropyridine-3-carboxamide] | 1700 nM
O=C(NC(c1ccccc1OC(F)(F)F)c1ccccc1OC(F)(F)F)c1ccc(C(F)(F)F)[nH]c1=O [Compound 79, N-(bis(2-(trifluoromethoxy)phenyl)methyl)-2-oxo-6-(trifluoromethyl)-1,2-dihydropyridine-3-carboxamide] | 2330 nM
O=C(NC(c1ccccc1)c1ccc2c(c1)COCC2)c1ccc(C(F)(F)F)[nH]c1=O (stereo not drawn) [Compound 83, N-(isochroman-7-yl(phenyl)methyl)-2-oxo-6-(trifluoromethyl)-1,2-dihydropyridine-3-carboxamide] | 2370 nM
O=C(NC(c1ccccc1)c1ccc(C2CCOC2)cc1)c1ccc(C(F)(F)F)[nH]c1=O (stereo not drawn) [Compound 86, N-(phenyl(4-(tetrahydrofuran-3-yl)phenyl)methyl)-2-oxo-6-(trifluoromethyl)-1,2-dihydropyridine-3-carboxamide] | 1940 nM
O=C(NC(c1ccccc1)c1ccc(N2CCNCC2)cc1)c1ccc(C(F)(F)F)[nH]c1=O (stereo not drawn) [Compound 88, N-(phenyl(4-(piperazin-1-yl)phenyl)methyl)-2-oxo-6-(trifluoromethyl)-1,2-dihydropyridine-3-carboxamide] | > 10000 nM
O=C(NC(c1ccccc1)c1ccc(-c2cncnc2)cc1)c1ccc(C(F)(F)F)[nH]c1=O (stereo not drawn) [Compound 92, N-(phenyl(4-(pyrimidin-5-yl)phenyl)methyl)-2-oxo-6-(trifluoromethyl)-1,2-dihydropyridine-3-carboxamide] | 2140 nM
CN1CCN(c2ccc(C(NC(=O)c3ccc(C(F)(F)F)[nH]c3=O)c3ccccc3)cc2)CC1 (stereo not drawn) [Compound 95, N-((4-(4-methylpiperazin-1-yl)phenyl)(phenyl)methyl)-2-oxo-6-(trifluoromethyl)-1,2-dihydropyridine-3-carboxamide] | 1460 nM and 350 nM
O=C(NC(c1ccccc1)c1ccc(N2CCN(CC(F)(F)F)CC2)cc1)c1ccc(C(F)(F)F)[nH]c1=O (stereo not drawn) [Compound 96, N-(phenyl(4-(4-(2,2,2-trifluoroethyl)piperazin-1-yl)phenyl)methyl)-2-oxo-6-(trifluoromethyl)-1,2-dihydropyridine-3-carboxamide] | 1740 nM

More lines, in order of falling IC50, values ahead:

IC50 | Structure (SMILES)
1480 nM | COc1ccc2c(c1)Oc1ccccc1C2NC(=O)c1ccc(C(F)(F)F)[nH]c1=O (stereo not drawn) [Compound 54, N-(3-methoxy-9H-xanthen-9-yl)-2-oxo-6-(trifluoromethyl)-1,2-dihydropyridine-3-carboxamide]
1370 nM | O=C(Cc1ccccc1)Nc1ccc(C(NC(=O)c2ccc(C(F)(F)F)[nH]c2=O)c2ccccc2)cc1 (stereo not drawn) [Compound 74, N-(phenyl(4-(2-phenylacetamido)phenyl)methyl)-2-oxo-6-(trifluoromethyl)-1,2-dihydropyridine-3-carboxamide]
1340 nM | COc1ccc(C(NC(=O)c2c(C)cc(C(F)(F)F)[nH]c2=O)c2ccccc2)cc1 (stereo not drawn) [Compound 78, N-((4-methoxyphenyl)(phenyl)methyl)-4-methyl-2-oxo-6-(trifluoromethyl)-1,2-dihydropyridine-3-carboxamide]
1130 nM | O=C(NC(c1ccccc1)c1ccc(C2=CCOC2)cc1)c1ccc(C(F)(F)F)[nH]c1=O (stereo not drawn) [Compound 87, N-((4-(2,5-dihydrofuran-3-yl)phenyl)(phenyl)methyl)-2-oxo-6-(trifluoromethyl)-1,2-dihydropyridine-3-carboxamide]
1110 nM | Cc1cccc(C(NC(=O)c2ccc(C(F)(F)F)[nH]c2=O)c2cccc(C)c2)c1 [Compound 62, N-(di-m-tolylmethyl)-6-(trifluoromethyl)-2-oxo-1,2-dihydropyridine-3-carboxamide]
1090 nM | O=C(NC(c1ccccc1)c1ccc2c(c1)CCCO2)c1ccc(C(F)(F)F)[nH]c1=O (stereo not drawn) [Compound 81, N-(chroman-6-yl(phenyl)methyl)-2-oxo-6-(trifluoromethyl)-1,2-dihydropyridine-3-carboxamide]
1090 nM | O=C(NC(c1ccccc1)c1ccc2c(c1)OCCC2)c1ccc(C(F)(F)F)[nH]c1=O (stereo not drawn) [Compound 89, N-(chroman-7-yl(phenyl)methyl)-2-oxo-6-(trifluoromethyl)-1,2-dihydropyridine-3-carboxamide]
1040 nM | O=C(NC(c1ccccc1)c1ccc2c(c1)OCC2)c1ccc(C(F)(F)F)[nH]c1=O (stereo not drawn) [Compound 84, N-((2,3-dihydrobenzofuran-6-yl)(phenyl)methyl)-2-oxo-6-(trifluoromethyl)-1,2-dihydropyridine-3-carboxamide]
920 nM | O=C(NC(c1ccccc1)c1ccc2c(c1)CCO2)c1ccc(C(F)(F)F)[nH]c1=O (stereo not drawn) [Compound 91, N-((2,3-dihydrobenzofuran-5-yl)(phenyl)methyl)-2-oxo-6-(trifluoromethyl)-1,2-dihydropyridine-3-carboxamide]
840 nM | O=C(NC(c1ccccc1)c1ccc2c(c1)CCOC2)c1ccc(C(F)(F)F)[nH]c1=O (stereo not drawn) [Compound 82, N-(isochroman-6-yl(phenyl)methyl)-2-oxo-6-(trifluoromethyl)-1,2-dihydropyridine-3-carboxamide]
840 nM | O=C(NC(c1ccccc1)c1ccc(-c2ccncc2)cc1)c1ccc(C(F)(F)F)[nH]c1=O (stereo not drawn) [Compound 85, 2-oxo-N-(phenyl(4-(pyridin-4-yl)phenyl)methyl)-6-(trifluoromethyl)-1,2-dihydropyridine-3-carboxamide]
680 nM | O=C(NC(c1ccccc1)c1ccc(C2CCC2)cc1)c1ccc(C(F)(F)F)[nH]c1=O (stereo not drawn) [Compound 77, N-((4-cyclobutylphenyl)(phenyl)methyl)-2-oxo-6-(trifluoromethyl)-1,2-dihydropyridine-3-carboxamide]
520 nM | O=C(NC(c1ccccc1)c1ccc2c(c1)CCC2)c1ccc(C(F)(F)F)[nH]c1=O (stereo not drawn) [Compound 90, N-((2,3-dihydro-1H-inden-5-yl)(phenyl)methyl)-2-oxo-6-(trifluoromethyl)-1,2-dihydropyridine-3-carboxamide]
460 nM | COc1ccc2c(c1)Oc1cccc(OC)c1C2NC(=O)c1ccc(C(F)(F)F)[nH]c1=O (stereo not drawn) [Compound 57, N-(1,6-dimethoxy-9H-xanthen-9-yl)-2-oxo-6-(trifluoromethyl)-1,2-dihydropyridine-3-carboxamide]
440 nM | COc1ccc2c(c1)Oc1cc(OC)ccc1C2NC(=O)c1ccc(C(F)(F)F)[nH]c1=O [Compound 56, N-(3,6-dimethoxy-9H-xanthen-9-yl)-2-oxo-6-(trifluoromethyl)-1,2-dihydropyridine-3-carboxamide]
